From patent publication US7691889B2, “Antimycobacterial compounds” (Lupin Limited, priority 2002, dated 2010) come the findings set out here.

Values after ≈ are worked out from the molar mass of the structure shown. Read-outs that look alike come from different tables or passages of the source.

For one data set, the system named is M. tuberculosis 27294. Kind of data set: In vitro agar dilution assay (MIC), reference strain. The format is cell-based, Mycobacterium tuberculosis. Particulars: for MIC against M. tuberculosis 27294: Middlebrook 7H10; for MIC: Mycobacterium tuberculosis, 27294, Middlebrook 7H10, read-out: MIC against M. tuberculosis 27294. For orientation: In agar dilution, organisms are placed on agar that contains the substance at set levels.

Data set [1] deals with M. tuberculosis clinical isolates, sensitive. As to the kind of experiment: microbe, parasite or virus in culture. The class given is cell-based, Mycobacterium tuberculosis. Conditions: for MIC against Clinical isolates Sensitive: Table I, agar dilution; for MIC: Mycobacterium tuberculosis.
A further data set concerns M. fortuitum. Kind of data set: In vitro agar dilution assay (MIC), M. fortuitum. The format is cell-based. Conditions: Table II.
In a further data set the test system is M. kansai. Kind of data set: In vitro agar dilution assay (MIC), M. kansai. The format is cell-based. Conditions: Table II.
The next data set in a line: Acute toxicity in mice. The class given is in vivo. Particulars: P. O.
In data set [2] the test system is M. tuberculosis ATCC 27294 infection. Kind of data set: Murine model of pulmonary tuberculosis. Particulars: for Mean Log10 No. of CFU Lung / Mean Log10 No. of CFU Spleen: 5 day/week for 4 weeks, mice; for Mean Log10 No. of reduction Lung / Mean Log10 No. of reduction Spleen: difference from early controls.
The mark [3] stands for this setting: read-out: MIC against Clinical isolates Sensitive.

In the case of `O=C(CCC(=O)c1ccc2ccccc2c1)NC[C@H]1CN(c2ccc([N+]3([O-])CCOCC3)c(F)c2)C(=O)O1` [Compound 30, (S)-N-[[3-(3-fluoro-4-morpholinylphenyl)-2-oxo-5-oxazolidinyl]methyl]-4-(4-2-naphthyl)-4-oxobutanamide-N-oxide], in the data set with M. tuberculosis 27294, the “MIC against M. tuberculosis 27294” value worked out at 0.5 µg/mL (≈ 0.959 µM). Also, the “MIC against Clinical isolates Sensitive” value in data set [1] is 0.5 µg/mL (≈ 0.959 µM). For the same compound, the “MIC M. tuberculosis Sensitive” value in data set [1] (Table II) stood at 0.50 µg/mL (≈ 0.959 µM). The “MIC M. fortuitum” value against M. fortuitum was above 16.0 µg/mL. Moreover, the “MIC M. kansai” value in the data set on M. kansai worked out at 8.0 µg/mL (≈ 15.3 µM). Besides, the “LD0 (acute toxicity)” value in “Acute toxicity in mice” is reported as above 1000 mg/kg. Moreover, the “Mean Log10 No. of CFU Lung” value turned out to be 4.34 in data set [2] (12.5 mg/kg by gavage), 2.21 in data set [2] (25 mg/kg by gavage) and 2.12 in data set [2] (50 mg/kg by gavage). In addition, the “Mean Log10 No. of CFU Spleen” value is 4.30 in data set [2] (12.5 mg/kg by gavage), 2.13 in data set [2] (25 mg/kg by gavage) and 2.09 in data set [2] (50 mg/kg by gavage). Also, the “Mean Log10 No. of reduction Lung” value in data set [2] (12.5 mg/kg) is 0.20; in data set [2] (25 mg/kg), 2.30; in data set [2] (50 mg/kg), 2.40. In addition, the “Mean Log10 No. of reduction Spleen” value in data set [2] (12.5 mg/kg) is reported as 0.26; in data set [2] (25 mg/kg), 2.49; in data set [2] (50 mg/kg) it was 2.53.
For the compound `COc1ccc(C(=O)CCC(=O)NC[C@H]2CN(c3ccc(N4CCCCC4)c(F)c3)C(=O)O2)cc1` [Compound 35, (S)-N-[[3-(3-fluoro-4-piperidylphenyl)-2-oxo-5-oxazolidinyl]methyl]-4-(4-methoxyphenyl)-4-oxobutanamide], the “MIC against M. tuberculosis 27294” value against M. tuberculosis 27294 was determined as 4 µg/mL (≈ 8.27 µM). Moreover, the “MIC against Clinical isolates Sensitive” value in data set [1] lay within 2 to 4 µg/mL.
The matching figures for `O=C(CCC(=O)c1ccc(Cl)cc1)NC[C@H]1CN(c2ccc(N3CCCCC3)c(F)c2)C(=O)O1` [Compound 36, (S)-N-[[3-(3-fluoro-4-piperidylphenyl)-2-oxo-5-oxazolidinyl]methyl]-4-(4-chlorophenyl)-4-oxobutanamide]: 4 µg/mL (≈ 8.2 µM) and 4 to 8 µg/mL.
With `O=C(CCC(=O)c1ccc(Cl)cc1)NC[C@H]1CN(c2ccc(-n3nnc4ccccc43)c(F)c2)C(=O)O1` [Compound 39, (S)-N-[[3-(3-fluoro-4-benzotriazolylphenyl)-2-oxo-5-oxazolidinyl]methyl]-4-(4-chlorophenyl)-4-oxobutanamide], in the data set with M. tuberculosis 27294, the “MIC against M. tuberculosis 27294” value is 2 µg/mL (≈ 3.83 µM). For the same compound, in data set [1], the “MIC against Clinical isolates Sensitive” value lay in the range of 2 to 4 µg/mL.
In the case of `Cc1ccc(C(=O)CCC(=O)NC[C@H]2CN(c3ccc(-c4nc[nH]n4)c(F)c3)C(=O)O2)c(C)c1` [Compound 43, (S)-N-[[3-(3-fluoro-4-(1,2,4-triazolyl)phenyl)-2-oxo-5-oxazolidinyl]methyl]-4-(2,4-dimethylphenyl)-4-oxobutanamide], the MIC in the data set on M. tuberculosis 27294 was 1 µg/mL (≈ 2.15 µM); in data set [1] (setting [3]) it was 0.5 to 1 µg/mL (≈ 1.07 to 2.15 µM).
For `CSc1ccc(C(=O)CCC(=O)NC[C@H]2CN(c3ccc(-n4cncn4)c(F)c3)C(=O)O2)cc1` [Compound 44, (S)-N-[[3-(3-fluoro-4-(1,2,4-triazolyl)phenyl)-2-oxo-5-oxazolidinyl]methyl]-4-oxo-4-(4-thiomethylphenyl)butanamide], in the data set on M. tuberculosis 27294, the “MIC against M. tuberculosis 27294” value stood at 1 µg/mL (≈ 2.07 µM). Also, the “MIC against Clinical isolates Sensitive” value in data set [1] was in the range of 0.5 to 2 µg/mL.
For `CCCc1ccc(C(=O)CCC(=O)NC[C@H]2CN(c3ccc(-c4nc[nH]n4)c(F)c3)C(=O)O2)c(C)c1` [Compound 46, (S)-N-[[3-(3-fluoro-4-(1,2,4-triazolyl)phenyl)-2-oxo-5-oxazolidinyl]methyl]-4-(2′-methyl-4-propylphenyl)-4-oxobutanamide], the MIC with M. tuberculosis 27294 was 2 µg/mL (≈ 4.05 µM); in data set [1] (setting [3]), 2 to 4 µg/mL (≈ 4.05 to 8.1 µM).
Turning to `O=C(CCC(=O)c1cccs1)NC[C@H]1CN(c2ccc(-c3nc[nH]n3)c(F)c2)C(=O)O1` [Compound 47, (S)-N-[[3-(3-fluoro-4-(1,2,4-triazolyl)phenyl)-2-oxo-5-oxazolidinyl]methyl]-4-oxo-4-(2-thienyl)butanamide], the MIC in the data set with M. tuberculosis 27294 was 1 µg/mL (≈ 2.25 µM); in data set [1] (setting [3]), 1 to 2 µg/mL (≈ 2.25 to 4.51 µM).
In the same order, the values of `O=C(CCC(=O)c1ccc2ccccc2c1)NC[C@H]1CN(c2ccc(-c3nc[nH]n3)c(F)c2)C(=O)O1` [Compound 48, (S)-N-[[3-(3-fluoro-4-(1,2,4-triazolyl)phenyl)-2-oxo-5-oxazolidinyl]methyl]-4-(2-naphthyl)-4-oxobutanamide] are 2 µg/mL (≈ 4.1 µM) and 2 to 4 µg/mL (≈ 4.1 to 8.21 µM).
As to `O=C(CCC(=O)c1ccc(Cl)cc1)NC[C@H]1CN(c2ccc(-c3nc[nH]n3)c(F)c2)C(=O)O1` [Compound 49, (S)-N-[[3-(3-fluoro-4-(1,2,4-triazolyl)phenyl)-2-oxo-5-oxazolidinyl]methyl]-4-(4-chlorophenyl)-4-oxobutanamide], the MIC in the data set on M. tuberculosis 27294 is 4 µg/mL (≈ 8.48 µM); in data set [1] (setting [3]), 4 to 16 µg/mL (≈ 8.48 to 33.9 µM).
For `CC(=O)Nc1ccc(C(=O)CCC(=O)NC[C@H]2CN(c3ccc(-c4nc[nH]n4)c(F)c3)C(=O)O2)cc1` [Compound 50, (S)-N-[[3-(3-fluoro-4-(1,2,4-triazolyl)phenyl)-2-oxo-5-oxazolidinyl]methyl]-4-(4-acetamidophenyl)-4-oxobutanamide], the results for the MIC (in the data set on M. tuberculosis 27294; in data set [1] (setting [3])) were 2 µg/mL (≈ 4.04 µM) and 2 to 4 µg/mL (≈ 4.04 to 8.09 µM), respectively.
For the compound `O=C(CCC(=O)c1cccs1)NC[C@H]1CN(c2ccc(N3CCCCC3)c(F)c2)C(=O)O1` [Compound 52, (S)-N-[[3-(3-fluoro-4-piperidylphenyl)-2-oxo-5-oxazolidinyl]methyl]-4-oxo-4-(2-thienyl)butanamide], the “MIC against M. tuberculosis 27294” value with M. tuberculosis 27294 was determined as 2 µg/mL (≈ 4.35 µM). The “MIC against Clinical isolates Sensitive” value in data set [1] amounted to 2 µg/mL (≈ 4.35 µM).
Regarding `CC(=O)Nc1ccc(C(=O)CCC(=O)NC[C@H]2CN(c3ccc(N4CCCCC4)c(F)c3)C(=O)O2)cc1` [Compound 54, (S)-N-[[3-(3-fluoro-4-piperidylphenyl)-2-oxo-5-oxazolidinyl]methyl]-4-(4-acetamidophenyl)-4-oxobutanamide], in the data set on M. tuberculosis 27294, the “MIC against M. tuberculosis 27294” value turned out to be 8 µg/mL (≈ 15.7 µM). In data set [1], the “MIC against Clinical isolates Sensitive” value is 8 to 16 µg/mL.
On to `O=C(C=CC(=O)c1ccccc1)NC[C@H]1CN(c2ccc(N3CCCCC3)c(F)c2)C(=O)O1` [Compound 55, (S)-N-[[3-(3-fluoro-4-piperidylphenyl)-2-oxo-5-oxazolidinyl]methyl]-4-oxo-4-phenylbut-2-enamide], for which the “MIC against M. tuberculosis 27294” value in the data set on M. tuberculosis 27294 is above 16 µg/mL. For the same compound, the “MIC against Clinical isolates Sensitive” value in data set [1] is above 16 µg/mL.
As to `CSc1ccc(C(=O)CCC(=O)NC[C@H]2CN(c3ccc(N4CCCC4)c(F)c3)C(=O)O2)cc1` [Compound 56, (S)-N-[[3-(3-fluoro-4-pyrrolidinylphenyl)-2-oxo-5-oxazolidinyl]methyl]-4-oxo-4-(4-thiomethylphenyl)butanamide], in the data set on M. tuberculosis 27294, the “MIC against M. tuberculosis 27294” value is above 16 µg/mL. Further, in data set [1], the “MIC against Clinical isolates Sensitive” value was above 16 µg/mL.
For the compound `NNC(=O)c1ccncc1` [Isoniazid, reference compound], the MIC in the data set on M. tuberculosis 27294 is 0.25 µg/mL (≈ 1.82 µM); in data set [1] (read-out: MIC M. tuberculosis Sensitive) it was 0.25 µg/mL (≈ 1.82 µM); in data set [1] (setting [3]), 0.12 to 0.25 µg/mL (≈ 0.875 to 1.82 µM); with M. fortuitum (Mycolicibacterium fortuitum) it was above 16 µg/mL; against M. kansai, above 16 µg/mL. For the same compound, the “Mean Log10 No. of CFU Lung” value in data set [2] (12.5 mg/kg by gavage) is given as 2.95; in data set [2] (25 mg/kg by gavage) it was 2.11; in data set [2] (50 mg/kg by gavage), 2.03. Also, the “Mean Log10 No. of CFU Spleen” value in data set [2] (12.5 mg/kg by gavage) came to 2.94; in data set [2] (25 mg/kg by gavage), 2.11; in data set [2] (50 mg/kg by gavage), 1.92. Also, the figures for the “Mean Log10 No. of reduction Lung” value in data set [2] (12.5 mg/kg), in data set [2] (25 mg/kg) and in data set [2] (50 mg/kg) were 1.57, 2.41 and 2.49, respectively. The “Mean Log10 No. of reduction Spleen” value in data set [2] (12.5 mg/kg) turned out to be 1.68; in data set [2] (25 mg/kg) it was 2.51; in data set [2] (50 mg/kg), 2.70.
Consider `CC(=O)NC[C@H]1CN(c2ccc(N3CCOCC3)c(F)c2)C(=O)O1` [Linezolid, (S)-N-[[3-[3-fluoro-4-(4-morpholinyl)phenyl]-2-oxo-5-oxazolidin-yl]methyl]-acetamide, reference compound], for which the MIC with M. tuberculosis 27294 was 0.5 µg/mL (≈ 1.48 µM); in data set [1] (setting [3]) it was 0.25 to 0.5 µg/mL (≈ 0.741 to 1.48 µM).
Consider “(S)-N-[[3-(3-fluoro-4-(1,2,4-triazolyl)phenyl)-2-oxo-5-oxazolidinyl]methyl]-4-(2′,2′-dimethyl-4-ethylphenyl)-4-oxobutanamide [Compound 45]”, for which, in the data set with M. tuberculosis 27294, the “MIC against M. tuberculosis 27294” value was 2.0 µg/mL. Further, the “MIC against Clinical isolates Sensitive” value in data set [1] is 2 to 4 µg/mL.
For “(S)-N-[[3-(3-fluoro-4-(1,2,4-triazolyl)phenyl)-2-oxo-5-oxazolidinyl]methyl]-4-oxo-4-phenylbutanamide [Compound 40]”, in the data set on M. tuberculosis 27294, the “MIC against M. tuberculosis 27294” value is 1 µg/mL. Also, the “MIC against Clinical isolates Sensitive” value in data set [1] was 1 to 2 µg/mL.
As to “(S)-N-[[3-(3-fluoro-4-morpholinylphenyl)-2-oxo-5-oxazolidinyl]methyl]-4-[4-(2′,2′-dimethyl-4-ethylphenyl)-4-oxobutanamide [Compound 20]”, in the data set with M. tuberculosis 27294, the “MIC against M. tuberculosis 27294” value was found to be 1 µg/mL. Further, the “MIC against Clinical isolates Sensitive” value in data set [1] is 1 to 2 µg/mL.
